We go through three compounds from ChEMBL document CHEMBL1128844, “The design, synthesis and evaluation of A,C,D-ring analogs of the fungal metabolite K-76 as complement inhibitors: a potential probe for the absolute stereochemistry at position 2” (1995).

Common to all, as to type: functional
The species entered for assay [1] is Homo sapiens. Description: Ability to inhibit human complement-mediated erythrocyte lysis by classical pathway.
For assay [2], the species on record is Homo sapiens. The experiment in a line: Ability to inhibit human complement-mediated erythrocyte lysis by alternate pathway.
Assay [3] is filed under the species Homo sapiens. The experiment in a line: Ability to inhibit human complement-mediated erythrocyte lysis by classical pathway at 2000 uM concentration.

For the compound `C[C@@H]1CCC2C(C)(C)[C@H](O)[C@H](O)C[C@]2(C)[C@@]12Cc1c(O)cc(C(=O)[O-])c(C=O)c1O2.[Na+]` (stereo not given in full), the IH50 in the assay listed under Homo sapiens [1] was 570 µM; in the assay listed under Homo sapiens [2], 850 µM. On the same counts, the results for `COc1ccc(C(=O)O)c2c1CC(C)(C1CC[C@](C)(O)C(O)C1)O2` (stereo not given in full) are 1600 µM and greater than 2550 µM. As a reminder, the inhibition is the change of the read-out against control, counted positive when it falls. Low values mean a weak effect, high ones a strong effect. The compound `C=C(Cc1c(OC)ccc(C(=O)O)c1O)C1CC[C@](C)(O)C(O)C1` (stereo not given in full) registered an inhibition at 2000 µM in the assay filed under Homo sapiens [3] of 24%.
